Laboratory results: US6632977B2 (priority 1996, dated 2003)
Read-outs that look alike come from different tables or passages of the source.

How the values were obtained:
adenylate cyclase = assay: Adenylate cyclase activity in brain homogenates after morphine deficiency induced by naloxone; format: in vivo, mice; design: Adenylate cyclase activity stimulated by forskolin: dose or concentration left out as unconfirmed; conditions: for increase in adenylate cyclase activity in the striatum: naloxone after chronic morphine; for Adenylate cyclase activity stimulated by forskolin: FK; for Adenylate cyclase activity stimulated by forskolin / Adenylate cyclase activity, basal: chronic morphine then naloxone
δ receptor [1] = biological target: T1, δ receptor (Mus musculus, UniProt P32300); conditions: for Bmax: [3H]NTI, μ receptor gene line; for NTI Bmax: kappa receptor gene line
T1 sequence (P32300 whole entry): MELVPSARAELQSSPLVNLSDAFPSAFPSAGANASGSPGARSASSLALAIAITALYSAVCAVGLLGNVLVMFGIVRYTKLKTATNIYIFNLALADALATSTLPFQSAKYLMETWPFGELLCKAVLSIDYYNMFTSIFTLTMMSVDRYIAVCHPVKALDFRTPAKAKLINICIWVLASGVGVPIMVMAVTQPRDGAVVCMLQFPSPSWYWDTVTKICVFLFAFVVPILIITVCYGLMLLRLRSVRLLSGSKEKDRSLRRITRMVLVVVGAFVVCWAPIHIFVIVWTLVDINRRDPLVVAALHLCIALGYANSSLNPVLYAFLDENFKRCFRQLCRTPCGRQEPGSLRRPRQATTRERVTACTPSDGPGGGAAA

[2] = test system: mixed lymphocyte reaction (MLR); conditions: in vitro; cited from earlier work
transplant rejection = conditions: in vivo; cited from earlier work
δ receptor [3] = biological target: T1, δ receptor; assay: biochemical

SMILES: CN1CC[C@]23c4c5ccc(O)c4O[C@H]2[C@@H](O)C=C[C@H]3[C@H]1C5 [morphine]
- increase in adenylate cyclase activity in the striatum (adenylate cyclase; animals deficient in the μ receptor): absent
- Adenylate cyclase activity stimulated by forskolin (adenylate cyclase; cerebellum, μ +/+): 966 ± 55 pmoles of cyclic AMP formed/minute/mg of protein
- Adenylate cyclase activity, basal (adenylate cyclase; cerebellum, μ +/+): 209 ± 30 pmoles of cyclic AMP formed/minute/mg of protein
- Adenylate cyclase activity stimulated by forskolin (adenylate cyclase; cerebellum, μ −/−): 979 ± 73 pmoles of cyclic AMP formed/minute/mg of protein
- Adenylate cyclase activity, basal (adenylate cyclase; cerebellum, μ −/−): 213 ± 42 pmoles of cyclic AMP formed/minute/mg of protein
- Adenylate cyclase activity stimulated by forskolin (adenylate cyclase; striatum, μ +/+): 1473 ± 43 pmoles of cyclic AMP formed/minute/mg of protein
- Adenylate cyclase activity, basal (adenylate cyclase; striatum, μ +/+): 401 ± 22 pmoles of cyclic AMP formed/minute/mg of protein
- Adenylate cyclase activity stimulated by forskolin (adenylate cyclase; striatum, μ −/−): 1158 ± 108 pmoles of cyclic AMP formed/minute/mg of protein
- Adenylate cyclase activity, basal (adenylate cyclase; striatum, μ −/−): 304 ± 28 pmoles of cyclic AMP formed/minute/mg of protein
- increase in adenylate cyclase activity in the striatum (adenylate cyclase; wild mice): 30%

SMILES: Oc1ccc2c3c1O[C@H]1c4[nH]c5ccccc5c4C[C@@]4(O)[C@@H](C2)N(CC2CC2)CC[C@]314 [NTI, naltrindole]
- Bmax (δ receptor [1]; heterozygous +/−): 0.103
- Bmax (δ receptor [1]; homozygous −/−): 0.124
- Bmax (δ receptor [1]; wild +/+): 0.095
- binding curves (Scatchard) compared between genotypes (δ receptor [1]; brains of +/+, +/− and −/− MOR mice): superimposable
- change in binding of the delta ligands (δ receptor [1]; kappa mutant animals with respect to wild animals): no change in the binding
- NTI Bmax (δ receptor [1]; heterozygous +/−): 0.170 pmole/mg proteins
- NTI Bmax (δ receptor [1]; homozygous −/−): 0.190 pmole/mg proteins
- NTI Bmax (δ receptor [1]; wild +/+): 0.204 pmole/mg proteins
- effect on the mixed lymphocyte reaction (MLR) [2]: suppressant effect
- effect on transplant rejection (transplant rejection): prevents transplant rejection
- Kd (δ receptor [3]; Kd, [3H]NTI, μ receptor gene line, heterozygous +/−): 0.075 nM
- Kd (δ receptor [3]; Kd, [3H]NTI, μ receptor gene line, homozygous −/−): 0.082 nM
- Kd (δ receptor [3]; Kd, [3H]NTI, μ receptor gene line, wild +/+): 0.068 nM
- Kd (δ receptor [3]; NTI Kd, kappa receptor gene line, heterozygous +/−): 0.109 nM
- Kd (δ receptor [3]; NTI Kd, kappa receptor gene line, homozygous −/−): 0.114 nM
- Kd (δ receptor [3]; NTI Kd, kappa receptor gene line, wild +/+): 0.108 nM
